Assay results reported in US12279615B2, “Wood preservative and method for producing same” (Koppers Performance Chemicals Inc., priority 2016, dated 2025).

Key:
Coniophora puteana = experiment: Laboratory soil-block decay resistance test, AWPA Standard E10-2015, treated southern pine sapwood cubes; format: cell-based; settings: micronized penflufen
Method: (§1) The synergism was determined using a modified method as described by Kull et al. (Applied Microbiology, 1961 (9): 538-541). The modified method is described as below: QA/Qa+QB/Qb=SI • Where: • Qa=concentration of substance A alone which controls a particular decay fungus • Qb=concentration of substance B alone which controls a particular decay fungus • QA=concentration of substance A in the concentration of the A and B mixture at which controls a particular decay fungus • QB=concentration of substance B in the concentration of the A and B mixture at which controls a particular decay fungus • SI=1 means additivity • SI>1 means antagonism • SI<1 means synergism
(§2) Wood cubes measuring 19 mm×19 mm×19 mm were prepared from southern pine sapwood. One set of wood cubes were pressured treated with serial treating solutions containing penflufen fungicide. A second set of wood cubes were pressure treated with treating solutions containing the copper fungicide. A third set of wood cubes were pressure treated with treating solutions containing a mixture of the copper and penflufen. The treated wood samples were exposed to various fungi to conduct a laboratory decay resistance test following protocols as described in American Wood Protection Association Standard E10-2015. Before and after exposure to fungi, the wood samples were weighed to determine the weight percent loss. No weight loss means complete control of the fungal attack.
(§3) Wood cubes measuring 19 mm×19 mm×19 mm were prepared from southern pine sapwood. The wood cubes were pressure treated with treating solutions containing micronized penflufen. The treated wood samples were exposed to various fungi to conduct a laboratory decay resistance test following protocols as described in American Wood Protection Association Standard E10-2015. Before and after exposure to fungi, the wood samples were weighed to determine the weight percent loss.

Fibroporia radiculosa = experiment: as above; format: cell-based; settings: micronized penflufen
Method: as §1, §2, §3

Gloeophyllum trabeum = experiment: as above; format: cell-based; settings: micronized penflufen
Method: as §1, §2, §3

Postia placenta = experiment: as above; format: cell-based; settings: micronized penflufen
Method: as §1, §2, §3

[1] = Particle size of penflufen after milling with 1 mm zirconia; format: physicochemical; settings: milled with 1 mm zirconia
Excerpt: The attainment of the injectable size, which generally requires both a d50 below 0.5 microns and a d98 less than three times the d50, was a surprising development. […] Milling a milling-resistant organic biocide, such as penflufen, with 1 mm zirconia provided a penflufen product with a d50 of 2 to 3 microns.

d50 [1]: 2 to 3 microns
SMILES: Cc1nn(C)c(F)c1C(=O)Nc1ccccc1C(C)CC(C)C (stereo not drawn) [Penflufen, penflufen]
Mean Percent Weigh Loss of Treated Wood Cubes (Coniophora puteana; Penflufen Retention 8 g/m^3): 1.4% | Mean Percent Weigh Loss of Treated Wood Cubes (Coniophora puteana; Penflufen Retention 12 g/m^3): 1.6% | Mean Percent Weigh Loss of Treated Wood Cubes (Coniophora puteana; Penflufen Retention 16 g/m^3): 1.6% | Mean Percent Weigh Loss of Treated Wood Cubes (Coniophora puteana; Penflufen Retention 24 g/m^3): 1.5% | Mean Percent Weigh Loss of Treated Wood Cubes (Coniophora puteana; Penflufen Retention 32 g/m^3): 1.1% | Mean Percent Weigh Loss of Treated Wood Cubes (Coniophora puteana; Penflufen Retention 48 g/m^3): 1.4% | Mean Percent Weigh Loss of Treated Wood Cubes (Coniophora puteana; Penflufen Retention 64 g/m^3): 2.0% | Mean Percent Weigh Loss of Treated Wood Cubes (Coniophora puteana; Penflufen Retention 80 g/m^3): 1.3% | Mean Percent Weigh Loss of Treated Wood Cubes (Fibroporia radiculosa; Penflufen Retention 8 g/m^3): 12.0% | Mean Percent Weigh Loss of Treated Wood Cubes (Fibroporia radiculosa; Penflufen Retention 12 g/m^3): 10.4% | Mean Percent Weigh Loss of Treated Wood Cubes (Fibroporia radiculosa; Penflufen Retention 16 g/m^3): 8.2% | Mean Percent Weigh Loss of Treated Wood Cubes (Fibroporia radiculosa; Penflufen Retention 24 g/m^3): 8.2% | Mean Percent Weigh Loss of Treated Wood Cubes (Fibroporia radiculosa; Penflufen Retention 32 g/m^3): 5.4% | Mean Percent Weigh Loss of Treated Wood Cubes (Fibroporia radiculosa; Penflufen Retention 48 g/m^3): 5.7% | Mean Percent Weigh Loss of Treated Wood Cubes (Fibroporia radiculosa; Penflufen Retention 64 g/m^3): 4.4% | Mean Percent Weigh Loss of Treated Wood Cubes (Fibroporia radiculosa; Penflufen Retention 80 g/m^3): 3.0% | Mean Percent Weigh Loss of Treated Wood Cubes (Gloeophyllum trabeum; Penflufen Retention 8 g/m^3): 3.1% | Mean Percent Weigh Loss of Treated Wood Cubes (Gloeophyllum trabeum; Penflufen Retention 12 g/m^3): 2.9% | Mean Percent Weigh Loss of Treated Wood Cubes (Gloeophyllum trabeum; Penflufen Retention 16 g/m^3): 3.6% | Mean Percent Weigh Loss of Treated Wood Cubes (Gloeophyllum trabeum; Penflufen Retention 24 g/m^3): 3.0% | Mean Percent Weigh Loss of Treated Wood Cubes (Gloeophyllum trabeum; Penflufen Retention 32 g/m^3): 3.5% | Mean Percent Weigh Loss of Treated Wood Cubes (Gloeophyllum trabeum; Penflufen Retention 48 g/m^3): 3.0% | Mean Percent Weigh Loss of Treated Wood Cubes (Gloeophyllum trabeum; Penflufen Retention 64 g/m^3): 1.6% | Mean Percent Weigh Loss of Treated Wood Cubes (Gloeophyllum trabeum; Penflufen Retention 80 g/m^3): 2.0% | Mean Percent Weigh Loss of Treated Wood Cubes (Postia placenta; Penflufen Retention 8 g/m^3): 3.5% | Mean Percent Weigh Loss of Treated Wood Cubes (Postia placenta; Penflufen Retention 12 g/m^3): 1.9% | Mean Percent Weigh Loss of Treated Wood Cubes (Postia placenta; Penflufen Retention 16 g/m^3): 2.1% | Mean Percent Weigh Loss of Treated Wood Cubes (Postia placenta; Penflufen Retention 24 g/m^3): 1.2% | Mean Percent Weigh Loss of Treated Wood Cubes (Postia placenta; Penflufen Retention 32 g/m^3): 1.2% | Mean Percent Weigh Loss of Treated Wood Cubes (Postia placenta; Penflufen Retention 48 g/m^3): 1.1% | Mean Percent Weigh Loss of Treated Wood Cubes (Postia placenta; Penflufen Retention 64 g/m^3): 1.1% | Mean Percent Weigh Loss of Treated Wood Cubes (Postia placenta; Penflufen Retention 80 g/m^3): 1.3%
